Assay: xn = mol fraction of the nth substance listed
Conditions: Liquid

C=C [ethene] + CO
Conditions	mass density [kg/m3]
278.15 K, x1 = 0.147	742.3
278.15 K, x1 = 0.189	722.2
278.15 K, x1 = 0.295	675.3
278.15 K, x1 = 0.373	644.9
278.15 K, x1 = 0.989	322
283.65 K, x1 = 0.14	741.3
283.65 K, x1 = 0.221	706
283.65 K, x1 = 0.325	657.5
283.65 K, x1 = 0.432	610.9
283.65 K, x1 = 0.475	589.1
283.65 K, x1 = 0.984	258.5

— the NIST ThermoML archive (doi:10.1021/je050374d)
